Test results as given in paper PMC7915858, “Complementary Effects of Carbamylated and Citrullinated LL37 in Autoimmunity and Inflammation in Systemic Lupus Erythematosus” (International Journal of Molecular Sciences, 2021).

Tests used:
[1] = system: native LL37-P1-specific T-cells (HLA-DRB1*1501 tetramer); conditions: SLE PBMC culture, tetramers of HLA-DR1, HLA-DR15 or HLA-DRB5; cited from earlier work
Source text: We have performed here similar experiments in SLE patients expressing the HLA-DR15 (HLA-DRB1*1501) and/or the DR16 alleles. Since both HLA-DR15- and HLA-DR16-positive individuals co-express DRB5 [[2 ...

[2] = system: pDCs; conditions: LL37 citrullinated at all five arginines; cited from earlier work
Source text: LL37 is able to activate innate immune cells and B-cells after forming complexes with nucleic acids in a special molecular conformation, suitable for TLR stimulation. PDCs, as well as B-cells, are both activated by LL37-DNA or LL37-RNA complexes.

[3] = system: SLE CD4 T-cells; conditions: cited from earlier work
Source text: The activation of autoreactive T- and B-cells characterizes Systemic Lupus Erythematosus (SLE), a rare but potentially severe disease, with poor therapeutic options. In this context, a deeper knowledge of the molecular pathways leading to autoimmunity in SLE may shed light over disease aspects still neglected and uncover novel disease biomarkers and therapy targets. The human cathelicidin antimicrobial peptide, (AMP, Uniprot P49913)—also called CAP-18 or FALL-39—is encoded by the human gene CAMP. The mature form, peptide LL37, which corresponds to the COOH-terminal part of the molecule ( ...

[4] = biological target: HLA-DR1 (DRB1*0101) (Homo sapiens, UniProt P01903+P01911, /P40L/Q125E/R42F/V115G/Y59C); assay: Peptide-MHC class II binding (HLA-DR folding assay, LOCI/AlphaScreen); conditions: peptide titrated, 48 h at 18 °C, LOCI, two experiments, KD values only in picture (Table S2)
Experimental: (§1) Peptide-MHC-binding assays was performed by ImmunAware (Horsholm, Denmark). Binding was measured using a Luminescent Oxygen Channeling Immunoassay (LOCI), marketed by Perkin Elmer (Hopkinton, MA, USA) as AlphaScreen. This is a nonradioactive bead-based homogenous proximity assay, where the donor beads containing a photosensitizer compound, upon excitation with light at a 680 nm wavelength, converts ambient oxygen to energy-rich, short-lived singlet oxygen; this latter is transferred to acceptor beads, in close proximity only. The acceptor beads can respond to a single oxygen with a luminescence/fluorescence cascade, leading to an amplified signal in the 520–620 nm range. There is a tag binding to the donor beads: a biotin group engineered into the HLA β chain.
(§2) The acceptor beads are linked instead to a conformation-dependent HLA class II specific antibody (L243). Thus, only when a peptide binds well the HLA class II molecule, a corrected folded HLA class II molecule is formed and can be recognized by the L243 antibody. Biotinylated recombinant HLA class II molecules were diluted from an 8 M urea buffer into a folding buffer (PBS, 20% glycerol, Protease inhibitor mix). Different peptide concentrations, between 0.13 nM and 10,000 nM, were added into the assay. The tested peptides were titrated in 5-to-8 five-fold concentration, […]. The reaction mixtures were incubated for 48 h at 18 °C to allow peptide-HLA-complex formation to reach a steady state. After incubation, 15 μL of the folding mixture was transferred to a 384-well Optiplate (Perkin Elmer), followed by addition of 15 μL of a solution containing L243 acceptor beads and streptavidin donor beads (final concentration of beads was 5 μL/mL). The plates were incubated over night at 18 °C and then measured in enVisionTM, Perkin Elmer. Assay signals measured in OD450 were plotted against the offered peptide concentrations and analyzed by non-linear regression using GraphPad Prism. The peptide concentration resulting in half saturation, the half maximal effective concentration (EC50), was estimated by fitting the experimental data to the equation: Y = Bmax*X/(KD + X), where Y is the OD450 measurement of complexes formed and X is the concentration of ligand (peptide) offered. The EC50 approximates the KD as long as the receptor concentration used is less than the KD, thus avoiding ligand depletion.

[5] = biological target: HLA-DR15 (DRB1*1501) (Homo sapiens, UniProt P01903+P01911); assay: as above; conditions: peptide titrated, 48 h at 18 °C, LOCI, two experiments, KD values only in picture (Table S2)
Experimental: as §1, §2

[6] = system: SLE-affected kidney biopsies; assay: Confocal microscopy of SLE renal biopsies; set-up: species or system human; conditions: antibody RRB640, lupus nephritis class IV
Experimental: Paraffin-included SLE renal biopsies were obtained from Policlinico Umberto I, Rome, IT. Biopsies were de-paraffinized in xylene (5 min, two times), followed by passages in: absolute ethanol (3 min), 95% ethanol in water (3 min), 80% ethanol in water (3 min), 70% ethanol in water (3 min) and antigen retrieval (5 min at 95 °C in 10 mM sodium citrate, pH 6.0). […] Slides were washed three times for 3 min under agitation with washing buffer and incubated with donkey anti-mouse or anti-rabbit secondary antibody, conjugated with AlexaFluor 647, Alexa Fluor 568 or 594 or AlexaFluor 488 (Abcam, Cambridge, UK) depending on the combinations of markers analyzed (in humidified chamber). Slides were washed again in washing buffer and mounted in Prolong Gold anti-fade media containing a DNA dye (DAPI) (Molecular Probes), before analysis with a confocal microscope, objectives 20× or 40× and 60× in oil immersion. Images were taken by a FV1000 confocal microscope (Olympus, Tokyo, Japan), using a Olympus planapo objective 40× or 60× oil A.N. 1,42. Excitation light was obtained by a Laser Dapi 408 nm for DAPI, an Argon Ion Laser (488 nm) for FITC (Alexa 488), a Diode Laser HeNe (561 nm) for Alexa 568 and a Red Diode Laser (638 nm) for Alexa 647. DAPI emission was recorded from 415 to 485 nm, FITC emission was recorded from 495 to 550 nm, Alexa 568 from 583 to 628 nm and Alexa 647, from 634 to 750 nm.

[7] = system: human DNA; assay: Binding of peptides to DNA by EMSA; conditions: 2% agarose gel
Experimental: Human DNA was extracted from PBMCs, as reported and was fragmented by sonication. Five milligrams of DNA in a volume of 300 μL were fragmented using the Sonics Vibra Cell sonicator (Newtown, CT, USA), with the following settings: 2, 4 and 10 sonication cycles (30 s on, 30 s off, in ice) to obtain DNA fragment sizes between 100 and 1000 bp. The resulting size distribution was controlled by 2% agarose gel electrophoresis.
EMSA was performed by mixing various μM concentrations of LL37 or carb-LL37 or cit-LL37 (or AMP S100A8, as negative control), with appropriate concentration of DNA, which respected the appropriate protein–DNA ratio used in pDC-stimulation assays. DNA alone and the mixtures were run on a 2% agarose gel to evidence the delay in migration of the DNA, due to the binding to the tested proteins. DNA on the gel was visualized by with SYBR Safe DNA gel staining (ThermoFisher Scientific).

Row | Substance | Expansion of T-cells specific for both cit-LL37 and native LL37 epitopes [1] | Ability to transform cell-free DNA into an inducer of IFN-I by human pDCs [2] | Antigen efficiency in SLE compared to native LL37 [3] | Binding to HLA-DRB1*0101 compared to cit-LL37 [4] | Binding to HLA-DRB1*0101 compared to cit-LL37 ([4]; listed as Carb-LL37) | Binding to HLA-DRB1*1501 compared to cit-LL37 [5] | Binding to HLA-DRB1*1501 compared to cit-LL37 ([5]; listed as Carb-LL37) | Presence in SLE-affected kidney biopsies and co-localization with IgG [6] | Concentration at which DNA binding ability is lost [7] [µM] | DNA binding ability ([7]; 3-to-5 experiments)
1 | LLGDFFR(cit)KSKEKIGKEFKR(cit)IVQR(cit)IKDFLR(cit)NLVPR(cit)TES [cit-LL37, LL37 citrullinated at all five arginine sites] | able to expand T-cells specific for both the cit-LL37 and the native LL37 epitopes | loose ability to transforms the “cell-free” DNA into an inducer of IFN-I by human pDCs | more efficient antigen in SLE than native LL37 | – | – | – | – | – | – | –
2 | L*LGDFFRK*SK*EK*IGKEFK*RIVQRIK*DFLRNLVPRTES [carb-LL37] | – | – | – | equivalent to the binding efficiency of cit-LL37 | binds HLA-DR alleles similarly to cit-LL37 | equivalent to the binding efficiency of cit-LL37 | binds HLA-DR alleles similarly to cit-LL37 | present in SLE-affected kidney biopsies and partially co-localizes with immunoglobulin (Ig)-G | 3 | does not completely abolish the LL37 DNA binding ability
